Assay results as given in patent publication US20160120861A1, “Compositions and Methods for Treating an Arrhythmia with an Opioid Antagonist” (PURDUE PHARMA L.P., priority 2013, published 2016).

Assay: QT study following E14 principles: ECG effects (QTcI) of BTDS alone, BTDS with naltrexone, naltrexone and moxifloxacin relative to placebo
Conditions: for Mean change from baseline (QTcI): 24-hr ECG at steady state
Procedure: A QT study following E14 principles regarding design, conduct, analysis, and interpretation was conducted with the following objectives
Primary: • To evaluate the ECG effects of 10, 40, and 80 mcg/hr buprenorphine delivered by a Buprenorphine Transdermal System (BTDS) alone, or by BTDS dosed with naltrexone tablets, relative to placebo in healthy male and female subjects
To evaluate the ECG effects of moxifloxacin relative to placebo (assay sensitivity)
To evaluate the ECG effects of BTDS+Naltrexone (NTX) vs. BTDS alone
To evaluate the ECG effects of naltrexone alone vs. placebo
The study was a randomized, double-blind, placebo and positive controlled, parallel group study with the following parameters:
• Healthy male or female subjects aged 18 to 55 years, inclusive • Heart rate between 45-85 bpm • No clinically significant medical history or disease • Subjects with personal or family history of prolonged QT interval or abnormal cardiovascular condition excluded
60 subjects/treatment group
• 1) BTDS alone (Butrans® 5, 10, 20, 40, 80 mcg/hr) • 2) Moxifloxacin (400 mg single doses on Days 6, 13, 17) • 3) Placebo • 4) Naltrexone alone (NTX 50 mg q12 h days 4-17) • 5) BTDS+Naltrexone (BTDS 10, 20, 40, 80 mcg/hr with NTX 50 mg q12 h days 4-17)
BTDS or matching placebo patches were applied according to a dose-escalation and dose tapering scheme
24-hr ECG were collected at steady-state for each BTDS dose level at Days 6 (10 mcg/hr), 13 (40 mcg/hr) and 17 (80 mcg/hr).
Continuous 24-hr 12-lead digital Holter ECG collections were performed as follows: • Two 24-hour baseline recordings (Days −2 and −1) • Three 24-hour periods on-treatment for Days 6 (10 mcg/hr), 13 (40 mcg/hr) and 17 (80 mcg/hr).
ECGs were extracted at 13 time points (0, 0.5, 1, 1.5, 2, 2.5, 3, 4, 7, 10, 13, 18, 23.5 hours) over each 24-hour ECG recording period.
Subjects rested supine for at least 10 minutes prior to each nominal ECG extraction time and activity was limited for the prior 2 hours.
4 ECGs were extracted and quantified at each nominal time point by a blinded central ECG laboratory.
The primary QT correction for heart rate was QTcI. 104 baseline ECGs were used to determine subject-specific HR correction.
Placebo-corrected change from baseline QTcI means and 90% CIs were calculated using a mixed effects general linear model with covariates for time, treatment, time by treatment interaction, and sex.

SMILES | >30-60 ms inc, N (%) (Day 6, QTcI, healthy subjects) | >60 ms inc, N (%) (Day 6, QTcI, healthy subjects) | New >480 ms, N (%) (Day 6, QTcI, healthy subjects) | New >500 ms, N (%) (Day 6, QTcI, healthy subjects) | Mean change from baseline (QTcI) (Day 6, healthy subjects) [ms] | >30-60 ms inc, N (%) (Day 13, QTcI, healthy subjects) | >60 ms inc, N (%) (Day 13, QTcI, healthy subjects) | New >480 ms, N (%) (Day 13, QTcI, healthy subjects) | New >500 ms, N (%) (Day 13, QTcI, healthy subjects) | Mean change from baseline (QTcI) (Day 13, healthy subjects) [ms] | >30-60 ms inc, N (%) (Day 17, QTcI, healthy subjects) | >60 ms inc, N (%) (Day 17, QTcI, healthy subjects) | New >480 ms, N (%) (Day 17, QTcI, healthy subjects) | New >500 ms, N (%) (Day 17, QTcI, healthy subjects) | Mean change from baseline (QTcI) (Day 17, healthy subjects) [ms] | Mean change in baseline of the QT interval as compared to buprenorphine alone (naltrexone administered with buprenorphine) | >60 ms inc, N (%) (both, human, in vivo) | New >480 ms, N (%) (both, human, in vivo) | New >500 ms, N (%) (both, human, in vivo) | QTcI results (positive control, assay sensitivity) (in vivo)
O=C1CC[C@@]2(O)[C@H]3Cc4ccc(O)c5c4[C@@]2(CCN3CC2CC2)[C@H]1O5 [NTX, naltrexone] | 0 N (%) | 0 N (%) | 0 N (%) | 0 N (%) | 1.5 | 1 (2%) N (%) | 0 N (%) | 0 N (%) | 0 N (%) | -1.7 | 1 (2%) N (%) | 0 N (%) | 0 N (%) | 0 N (%) | -0.9 | reduced | – | – | – | –
COc1c(N2C[C@@H]3CCCN[C@@H]3C2)c(F)cc2c(=O)c(C(=O)O)cn(C3CC3)c12 [Moxifloxacin] | – | – | – | – | – | – | – | – | – | – | – | – | – | – | – | – | 0 N (%) | 0 N (%) | 0 N (%) | as expected
